Laboratory results from patent publication US8178506B2, “Oligomeric compounds and compositions for use in modulation of small non-coding RNAs” (Regulus Therapeutics Inc., priority 2003, dated 2012).
In the oligonucleotide strings, read from the 5' end, every base follows the letter of its sugar. An asterisk marks phosphorothioate; unmarked linkages are phosphodiester. Other units and linkages are bracketed, terminal groups are in braces. A string of capitals states the bases alone. e = 2'-O-(2-methoxyethyl) (MOE); [5mC] = 5-methylcytosine; d = 2'-deoxy (DNA)

How the values were obtained:
IL-12 mRNA = IL-12 mRNA in LPS-activated primary murine macrophages; format: cell-based, mouse; settings: normalized to LPS-treated cells without oligomeric compound; for IL-12 mRNA expression, −IFN % UTC: 300 nM oligomeric compound and LPS, no IFN-gamma pretreatment, single experiment; for IL-12 mRNA expression, +IFN % UTC: 300 nM oligomeric compound, stimulation with IFN-gamma and LPS, average of 2 experiments
Experimental: To investigate the role of miRNAs in the immune response, oligomeric compounds of the present invention targeting miRNAs were tested for their effects upon lipopolysaccharide (LPS)-activated primary murine macrophages. Macrophages participate in the immune response, for example, in the recognition and phagocytosis of microorganisms, including bacteria. Interferon-gamma (IFN-gamma) released by helper T cells is one type of signal required for macrophage activation, and LPS can serve as an additional stimulus. LPS is a component of the gram-negative bacterial cell wall and acts as an agonist for toll-like receptor 4 (TLR4), the primary LPS receptor expressed by macrophages. The proinflammatory cytokines interleukin-12 (IL-12) and interleukin-6 (IL-6) are induced by LPS treatment of macrophages, thus the expression of the mRNAs encoding these cytokines was used to evaluate the response of macrophages to LPS following treatment with oligomeric compounds targeting miRNAs.
Macrophages were isolated as follows. Female C57B1/6 mice (Charles River Laboratories, Wilmington, Mass.) were injected intraperitoneally with 1 ml 3% thioglycollate broth (Sigma-Aldrich, St. Louis, Mo.), and peritoneal macrophage cells were isolated by peritoneal lavage 4 days later. The cells were plated in 96-well plates at 40,000 cells/well for one hour in serum-free RPMI adjusted to contain 10 mM HEPES (Invitrogen Life Technologies, Carlsbad, Calif.), allowed to adhere, then non-adherent cells were washed away and the media was replaced with RPMI containing 10 mM HEPES, 10% FBS and penicillin/streptomycin (“complete” RPMI; Invitrogen Life Technologies, Carlsbad, Calif.).
Oligomeric compounds were introduced into the cells using the non-liposomal transfection reagent FuGENE 6 Transfection Reagent (Roche Diagnostics Corp., Indianapolis, Ind.). Oligomeric compound was mixed with FuGENE 6 in 1 mL of serum-free RPMI to achieve a concentration of 10 μL FuGENE per 1000 nM oligomeric compound. The oligomeric compound/FuGENE complex was allowed to form at room temperature for 20 minutes. This mixture was diluted to the desired concentration of oligomeric compound by the addition of the appropriate volume of complete RPMI. The final ratio of FuGENE 6 to oligomeric compound was 1 μL of FuGENE 6 per 100 nM oligomeric compound. A volume of 100 μL of oligomeric compound/FuGENE/RPMI was added to each well of the 96-well plate in which the macrophages were cultured. Each oligomeric compound treatment was repeated in triplicate.
Following oligomeric compound treatment, cells were stimultated with LPS. Cells were cultured in the presence of the transfection complex for approximately 24 to 28 hours at 37° C. and 5% CO2, after which the medium containing the transfection complex was removed from the cells, and complete RPMI containing 100 ng/mL LPS (Sigma-Aldrich Corp., St. Louis, Mo.) was added to the cells for a period of approximately 24 hours. Control samples included (1) cells receiving no oligomeric compound, stimulated with LPS and (2) cells receiving neither oligomeric compound nor LPS treatment.
In another embodiment, following oligomeric compound treatment, cells were first activated by IFN-gamma, to amplify the response to LPS. Cells were cultured in the presence of the transfection complex for approximately 24 hours at 37° C. and 5% CO2, at which point the medium containing the transfection complex was removed from the cells, and complete RPMI containing 100 ng/mL recombinant mouse IFN-gamma (R&D Systems, Minneapolis, Minn.) was added to the cells. After the 4 hour treatment with INF-gamma, cells were treated with 100 ng/mL LPS for approximately 24 hours. Control samples included (1) cells receiving no oligomeric compound, stimulated with LPS and (2) cells receiving neither oligomeric compound nor LPS treatment. […]

[1] = test system: BJ, B16-F10, T47D, T47Dp53 and HeLa cells; assay: Cell cycle assay (propidium iodide flow cytometry), cell line panel; format: cell-based; settings: for G1 (percentage of cells in phase of the cell cycle) / G2/M (percentage of cells in phase of the cell cycle) / S (percentage of cells in phase of the cell cycle) / SubG1 (percentage of cells in phase of the cell cycle) / aneuploid (percentage of cells): 150 nM oligomeric compound, 4.5 μg/ml LIPOFECTIN, after 72 hours, propidium iodide flow cytometry
adipocytes = assay: Triglyceride accumulation assay in adipocytes; format: cell-based, human
PPARγ = PPARγ mRNA expression in adipocytes (real-time PCR); format: cell-based, human
HSL = HSL mRNA expression in adipocytes (real-time PCR); format: cell-based, human
Glut4 = Glut4 mRNA expression in adipocytes (real-time PCR); format: cell-based, human
aP2 = aP2 mRNA expression in adipocytes (real-time PCR); format: cell-based, human; settings: for aP2 mRNA: differentiating adipocytes transfected with oligomeric compound, Table 75
HeLa cells = assay: Cell cycle assay in HeLa cells; format: cell-based, human; settings: HeLa cells, 150 nM oligomeric compound
[2] = differentiating adipocytes transfected with oligomeric compound, Table 75
[3] = Table 17, differentiating adipocytes, control = treatment with ISIS 342673
[4] = 24 hours, relative to untreated control (UTC = 100)
[5] = 48 hours after treatment, relative to untreated control (UTC=100)

## 341815 (antisense CAUCGUUACCAGACAGUGUUA; all 2'-MOE, all phosphorothioate, methylation of C and T or U not given here) [compound 341815]
IL-12 mRNA
  IL-12 mRNA expression, −IFN % UTC: 190 % UTC
  IL-12 mRNA expression, +IFN % UTC: 157 % UTC

## 328364 (eT*e[5mC]*eT*eT*eA*dA*dG*dT*d[5mC]*dA*d[5mC]*dA*dA*dA*dT*e[5mC]*eA*eG*e[5mC]*eA) [compound 328364]
[1]
  G1 (percentage of cells in phase of the cell cycle): 61.5%
  G2/M (percentage of cells in phase of the cell cycle): 14.3%
  S (percentage of cells in phase of the cell cycle): 24.2%
  SubG1 (percentage of cells in phase of the cell cycle): 1.9%
  aneuploid (percentage of cells): 15.1%

## 341793 (antisense CCAUAAAGUAGGAAACACUACA; all 2'-MOE, all phosphorothioate, methylation of C and T or U not given here) [compound 341793]
IL-12 mRNA
  IL-12 mRNA expression, −IFN % UTC: 202 % UTC
  IL-12 mRNA expression, +IFN % UTC: 147 % UTC

## 341811 (antisense UCCACAUGGAGUUGCUGUUACA; all 2'-MOE, all phosphorothioate, methylation of C and T or U not given here) [compound 341811]
IL-12 mRNA
  IL-12 mRNA expression, −IFN % UTC: 154 % UTC
  IL-12 mRNA expression, +IFN % UTC: 88 % UTC

## AGCCTATCCTGGATTACTTGAA (anti-miR; chemistry not fully specified) [ISIS 327907, uniform 2′-MOE PS; targets mir-26a]
[1]; 150 nM, 72 hours (Table 29)
  percentage of aneuploid cells: higher than average percentages of aneuploid cells
  percentage of cells with hypodiploid DNA content (subG1): increased percentage of cells with hypodiploid DNA content

## 340345 (antisense GGAACUUAGCCACUGUGAA; all 2'-MOE, all phosphorothioate, methylation of C and T or U not given here) [compound 340345]
IL-12 mRNA
  IL-12 mRNA expression, −IFN % UTC: 104 % UTC
  IL-12 mRNA expression, +IFN % UTC: 78 % UTC

## 340348 (antisense CTACCTGCACGAACAGCACTTT; all 2'-MOE, all phosphorothioate, methylation of C not given here) [compound 340348]
adipocytes; [2]
  TG (triglyceride accumulation): 48 percentage of untreated control (UTC)
PPARγ; [2]
  PPAR gamma mRNA: 78 percentage of untreated control (UTC)
[1]
  G1 (percentage of cells in phase of the cell cycle): 53.9%
  G2/M (percentage of cells in phase of the cell cycle): 14.3%
  S (percentage of cells in phase of the cell cycle): 31.8%
  SubG1 (percentage of cells in phase of the cell cycle): 14.1%
  aneuploid (percentage of cells): 12.3%
HSL; [2]
  HSL mRNA: 57 percentage of untreated control (UTC)
Glut4; [2]
  GLUT4 mRNA: 52 percentage of untreated control (UTC)
aP2
  aP2 mRNA: 68 percentage of untreated control (UTC)

## 341790 (antisense CGAAGGCAACACGGAUAACCUA; all 2'-MOE, all phosphorothioate, methylation of C and T or U not given here) [compound 341790]
IL-12 mRNA
  IL-12 mRNA expression, −IFN % UTC: 318 % UTC
  IL-12 mRNA expression, +IFN % UTC: 84 % UTC

## CCGAGCTCTCTTATCAACAG (e[5mC]*e[5mC]*eG*eA*eG*d[5mC]*dT*d[5mC]*dT*d[5mC]*dT*dT*dA*dT*d[5mC]*eA*eA*e[5mC]*eA*eG) [ISIS 183891, 5-10-5 gapmer targeting kinesin-like 1 (Eg5), positive control, reference compound]
[1]; BJ 200 nM, T47D, T47Dp53, HeLa, B16 150 nM, 48 hours
  cell cycle delay or arrest in all cell lines: delay or arrest in G2/M phase

## TCATAGCCCTGTACAATGCTGCT (anti-miR; chemistry not fully specified) [ISIS 327906, uniform 2′-MOE PS; targets mir-103-1]
[1]; 150 nM, 72 hours (Table 29)
  percentage of cells in the G2/M phase: increased percentage of cells in the G2/M phase
  percentage of cells with hypodiploid DNA content (subG1): increased percentage of cells with hypodiploid DNA content

## TACTTTATATAGAACACAAG (chemistry not given here) [ISIS 340365, 5-10-5 gapmer PS; targets mir-92-2]
[1]; 150 nM, 72 hours (Table 29)
  percentage of aneuploid cells: higher than average percentages of aneuploid cells

## 346695 (CACUGGUACAAGGGUUGGGAGA; all 2'-MOE, all phosphorothioate, methylation of C and T or U not given here) [compound 346695]
adipocytes; [2]
  TG (triglyceride accumulation): 69 percentage of untreated control (UTC)
PPARγ; [2]
  PPAR gamma mRNA: 78 percentage of untreated control (UTC)
HSL; [2]
  HSL mRNA: 73 percentage of untreated control (UTC)
Glut4; [2]
  GLUT4 mRNA: 58 percentage of untreated control (UTC)
aP2
  aP2 mRNA: 72 percentage of untreated control (UTC)

## 328139 (eT*eA*e[5mC]*eT*eT*eT*eT*e[5mC]*eA*eT*eT*e[5mC]*e[5mC]*e[5mC]*e[5mC]*eT*e[5mC]*eA*e[5mC]*e[5mC]*eA; anti-miR) [compound 328139]
adipocytes; [3]
  TG (triglyceride accumulation): 89.1 percentage of control
adipocytes; [2]
  TG (triglyceride accumulation): 90 percentage of untreated control (UTC)
PPARγ; [3]
  PPAR gamma mRNA: 115.0 percentage of control
PPARγ; [2]
  PPAR gamma mRNA: 91 percentage of untreated control (UTC)
HSL; [3]
  HSL mRNA: 92.6 percentage of control
HSL; [2]
  HSL mRNA: 116 percentage of untreated control (UTC)
Glut4; [3]
  GLUT4 mRNA: 106.3 percentage of control
Glut4; [2]
  GLUT4 mRNA: 85 percentage of untreated control (UTC)
aP2; [3]
  AP2 mRNA: 98.3 percentage of control
aP2
  aP2 mRNA: 100 percentage of untreated control (UTC)

## 340365 (antisense TACTTTATATAGAACACAAG; sugars from the 5' end e5 d10 e5, all phosphorothioate, methylation of C not given here) [compound 340365]
HeLa cells; [4]
  % cells aneuploid: 84%
  % cells in cell cycle phase G1: 125%
  % cells in cell cycle phase G2/M: 114%
  % cells in cell cycle phase S: 71%
  % cells in cell cycle phase subG1: 109%
HeLa cells; [5]
  % cells in cell cycle phase: G1: 99%
  % cells in cell cycle phase: G2/M: 109%
  % cells in cell cycle phase: S: 94%
  % cells in cell cycle phase: aneuploid: 129%
  % cells in cell cycle phase: subG1: 71%
[1]
  G1 (percentage of cells in phase of the cell cycle): 55.2%
  G2/M (percentage of cells in phase of the cell cycle): 15.4%
  S (percentage of cells in phase of the cell cycle): 29.4%
  SubG1 (percentage of cells in phase of the cell cycle): 4.3%
  aneuploid (percentage of cells): 18.3%
